The record followed here is ChEMBL document CHEMBL1138028, “Synthesis and HIV-1 integrase inhibitory activity of dimeric and tetrameric analogs of indolicidin” (Bioorg Med Chem Lett, 2004).

Test [1] has as its target T1, Human immunodeficiency virus type 1 integrase (Human immunodeficiency virus 1, UniProt Q7ZJM1). Briefly: Concentration required for inhibition of HIV-1 integrase mediated 3'-end processing.
The target in test [2] is T1, Human immunodeficiency virus type 1 integrase. The experiment in a line: Concentration required for inhibition of HIV-1 integrase mediated strand transfer.

T1 sequence (Q7ZJM1 whole entry): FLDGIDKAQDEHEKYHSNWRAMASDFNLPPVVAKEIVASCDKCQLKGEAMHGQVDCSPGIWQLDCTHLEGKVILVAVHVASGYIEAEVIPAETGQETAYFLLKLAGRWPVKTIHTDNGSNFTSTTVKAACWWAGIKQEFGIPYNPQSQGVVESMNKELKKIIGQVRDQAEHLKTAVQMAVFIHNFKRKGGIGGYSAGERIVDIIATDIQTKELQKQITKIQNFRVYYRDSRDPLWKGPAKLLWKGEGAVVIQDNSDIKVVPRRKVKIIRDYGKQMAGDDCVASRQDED

`CC[C@H](C)[C@H](N)C(=O)N[C@@H](CC(C)C)C(=O)N1CCC[C@H]1C(=O)N[C@@H](Cc1c[nH]c2ccccc12)C(=O)N[C@@H](CCCCN)C(=O)N[C@@H](Cc1c[nH]c2ccccc12)C(=O)N1CCC[C@H]1C(=O)N[C@@H](Cc1c[nH]c2ccccc12)C(=O)N[C@@H](Cc1c[nH]c2ccccc12)C(=O)N1CCC[C@H]1C(=O)N[C@@H](Cc1c[nH]c2ccccc12)C(=O)N1CCC[C@H]1C(=O)N1CCC[C@H]1C(=O)NCCCCC(NC(=O)[C@@H]1CCCN1C(=O)[C@@H]1CCCN1C(=O)[C@H](Cc1c[nH]c2ccccc12)NC(=O)[C@@H]1CCCN1C(=O)[C@H](Cc1c[nH]c2ccccc12)NC(=O)[C@H](Cc1c[nH]c2ccccc12)NC(=O)[C@@H]1CCCN1C(=O)[C@H](Cc1c[nH]c2ccccc12)NC(=O)[C@H](CCCCN)NC(=O)[C@H](Cc1c[nH]c2ccccc12)NC(=O)[C@@H]1CCCN1C(=O)[C@H](CC(C)C)NC(=O)[C@@H](N)[C@@H](C)CC)C(=O)NCCCCC(NC(=O)C(CCCCNC(=O)[C@@H]1CCCN1C(=O)[C@@H]1CCCN1C(=O)[C@H](Cc1c[nH]c2ccccc12)NC(=O)[C@@H]1CCCN1C(=O)[C@H](Cc1c[nH]c2ccccc12)NC(=O)[C@H](Cc1c[nH]c2ccccc12)NC(=O)[C@@H]1CCCN1C(=O)[C@H](Cc1c[nH]c2ccccc12)NC(=O)[C@H](CCCCN)NC(=O)[C@H](Cc1c[nH]c2ccccc12)NC(=O)[C@@H]1CCCN1C(=O)[C@H](CC(C)C)NC(=O)[C@H](N)[C@@H](C)CC)NC(=O)[C@@H]1CCCN1C(=O)[C@@H]1CCCN1C(=O)[C@H](Cc1c[nH]c2ccccc12)NC(=O)[C@@H]1CCCN1C(=O)[C@H](Cc1c[nH]c2ccccc12)NC(=O)[C@H](Cc1c[nH]c2ccccc12)NC(=O)[C@@H]1CCCN1C(=O)[C@H](Cc1c[nH]c2ccccc12)NC(=O)[C@H](CCCCN)NC(=O)[C@H](Cc1c[nH]c2ccccc12)NC(=O)[C@@H]1CCCN1C(=O)[C@H](CC(C)C)NC(=O)[C@@H](N)[C@@H](C)CC)C(N)=O` (stereo not given in full): the IC50 in test [1] and in test [2] was 0.6 µM in each case.

Take `CC[C@H](C)[C@@H](N)C(=O)N[C@H](CC(C)C)C(=O)N1CCC[C@@H]1C(=O)N[C@H](Cc1c[nH]c2ccccc12)C(=O)N[C@H](CCCCN)C(=O)N[C@H](Cc1c[nH]c2ccccc12)C(=O)N1CCC[C@@H]1C(=O)N[C@H](Cc1c[nH]c2ccccc12)C(=O)N[C@H](Cc1c[nH]c2ccccc12)C(=O)N1CCC[C@@H]1C(=O)N[C@H](Cc1c[nH]c2ccccc12)C(=O)N1CCC[C@@H]1C(=O)N1CCC[C@@H]1C(=O)NCCCCC(NC(=O)[C@H]1CCCN1C(=O)[C@H]1CCCN1C(=O)[C@@H](Cc1c[nH]c2ccccc12)NC(=O)[C@H]1CCCN1C(=O)[C@@H](Cc1c[nH]c2ccccc12)NC(=O)[C@@H](Cc1c[nH]c2ccccc12)NC(=O)[C@H]1CCCN1C(=O)[C@@H](Cc1c[nH]c2ccccc12)NC(=O)[C@@H](CCCCN)NC(=O)[C@@H](Cc1c[nH]c2ccccc12)NC(=O)[C@H]1CCCN1C(=O)[C@@H](CC(C)C)NC(=O)[C@H](N)[C@@H](C)CC)C(N)=O` (stereo not given in full): the 50% inhibitory concentration (IC50) in test [1] and in test [2] was 2.3 µM throughout.

Take `CC[C@H](C)[C@H](N)C(=O)N[C@@H](CC(C)C)C(=O)N1CCC[C@H]1C(=O)N[C@@H](Cc1c[nH]c2ccccc12)C(=O)NCC(=O)N[C@@H](Cc1c[nH]c2ccccc12)C(=O)N1CCC[C@H]1C(=O)N[C@@H](Cc1c[nH]c2ccccc12)C(=O)N[C@@H](Cc1c[nH]c2ccccc12)C(=O)N1CCC[C@H]1C(=O)N[C@@H](Cc1c[nH]c2ccccc12)C(=O)N[C@@H](CCCN=C(N)N)C(=O)N[C@@H](CCCN=C(N)N)C(N)=O`: the IC50 – broadly, the concentration needed to halve the response being measured – turned out to be 49 µM in test [1] and 19 µM in test [2].

With `CC[C@H](C)[C@H](N)C(=O)N[C@@H](CC(C)C)C(=O)N1CCC[C@H]1C(=O)N[C@@H](Cc1c[nH]c2ccccc12)C(=O)N[C@@H](CCCCN)C(=O)N[C@@H](Cc1c[nH]c2ccccc12)C(=O)N1CCC[C@H]1C(=O)N[C@@H](Cc1c[nH]c2ccccc12)C(=O)N[C@@H](Cc1c[nH]c2ccccc12)C(=O)N1CCC[C@H]1C(=O)N[C@@H](Cc1c[nH]c2ccccc12)C(=O)N1CCC[C@H]1C(=O)N1CCC[C@H]1C(=O)NCCCCC(NC(=O)[C@@H]1CCCN1C(=O)[C@@H]1CCCN1C(=O)[C@H](Cc1c[nH]c2ccccc12)NC(=O)[C@@H]1CCCN1C(=O)[C@H](Cc1c[nH]c2ccccc12)NC(=O)[C@H](Cc1c[nH]c2ccccc12)NC(=O)[C@@H]1CCCN1C(=O)[C@H](Cc1c[nH]c2ccccc12)NC(=O)[C@H](CCCCN)NC(=O)[C@H](Cc1c[nH]c2ccccc12)NC(=O)[C@@H]1CCCN1C(=O)[C@H](CC(C)C)NC(=O)[C@@H](N)[C@@H](C)CC)C(N)=O` (stereo not given in full), the IC50 amounted to 2.8 µM in test [1] and 4.9 µM in test [2].

Take `CC[C@H](C)[C@H](N)C(=O)N[C@@H](CC(C)C)C(=O)N1CCC[C@H]1C(=O)N[C@@H](Cc1c[nH]c2ccccc12)C(=O)N[C@@H](CCCCN)C(=O)N[C@@H](Cc1c[nH]c2ccccc12)C(=O)N1CCC[C@H]1C(=O)N[C@@H](Cc1c[nH]c2ccccc12)C(=O)N[C@@H](Cc1c[nH]c2ccccc12)C(=O)N1CCC[C@H]1C(=O)N[C@@H](Cc1c[nH]c2ccccc12)C(=O)N[C@@H](CCCN=C(N)N)C(=O)N[C@@H](CCCN=C(N)N)C(N)=O` [Indolicidin]: the IC50 in test [1] was 60 µM; in test [2] it was 57 µM.

For H-ILAWKWAWWAWPP-NH2, the IC50 in test [1] was found to be 54 µM; in test [2], 41 µM.

In the case of H-ILPWGWPWWPWPP-NH2, the IC50 in test [1] and in test [2] was > 333 µM each time.

Regarding H-ILPWKWPWWPWP-NH2, the IC50 in test [1] came to 180 µM; in test [2] it was 80 µM.

Turning to H-ILPWKWPWWPWPP-NH2, the IC50 amounted to 16 µM in test [1] and 13 µM in test [2].

As for H-LPWKWPWWPWPP-NH2, the IC50 stood at 185 µM in test [1] and 215 µM in test [2].
